Two molecules from publication PMC12340723, “Validation of Hv1 channel functions in BV2 microglial cells using small molecule modulators” (Frontiers in Cellular Neuroscience, 2025) can be followed below.

For assay [1], the target named is T1, Voltage-gated proton channel Hv1 (Mus musculus, UniProt Q3U2S8).
T1 construct: gene Hvcn1; endogenous Hv1 in BV2 microglial cells
T1 sequence (Q3U2S8 1-269): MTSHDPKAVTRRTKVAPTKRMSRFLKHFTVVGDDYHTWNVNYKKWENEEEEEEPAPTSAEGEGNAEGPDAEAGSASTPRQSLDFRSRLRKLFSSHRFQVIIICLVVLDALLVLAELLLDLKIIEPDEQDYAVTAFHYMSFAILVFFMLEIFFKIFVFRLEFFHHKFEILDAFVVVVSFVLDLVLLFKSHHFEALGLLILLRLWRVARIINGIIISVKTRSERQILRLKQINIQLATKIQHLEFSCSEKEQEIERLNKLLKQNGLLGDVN
Description: whole-cell patch clamp at +[…] mV in BV2 cells (activator); BCECF pH-recovery assay, effect abolished by Hv1 shRNA. It is filed as cell-based. A general note: Patch clamp records ionic current or voltage across a cell membrane.

Assay [2] addresses T1, Voltage-gated proton channel Hv1. Description: whole-cell patch clamp at +[…] mV in BV2 cells; BCECF pH-recovery assay, effect abolished by Hv1 shRNA. It is filed as cell-based.

In general, EC50 refers to the concentration giving half of the maximal effect. The low end stands for an effect from little substance, the high end for a need for much substance. `O=C(CC1Sc2ccccc2NC1=O)Nc1ccccc1Cl` (centres unmarked) [S-023-0515] showed an EC50 in assay [1] of 8.41 ± 1.9 µM.
The IC50 is the concentration that inhibits the measured activity by half. Lower therefore signals inhibition by little substance. `O=C(CC1Sc2ccccc2NC1=O)Nc1ccc(Cl)cc1` (centres unmarked) [YHV98-4] gave an IC50 in assay [2] of 2.6 ± 1.1 µM.
